What was measured:
Experiment in all cases: relative viability (nuclei count vs DMSO), 5 days (fraction); higher = more cells survive
[1] = compound: O=c1ncccn1[C@@H]1O[C@H](CO)[C@@H](O)[C@H]1O [Zebularine] + CC(=O)Nc1cccc(-n2c(=O)n(C3CC3)c(=O)c3c(Nc4ccc(I)cc4F)n(C)c(=O)c(C)c32)c1 [Trametinib] (partner 0.02 µM)
Outline: (§1)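 Relative viability is defined as nuclei in treated wells over nuclei in vehicle wells. Duplicate plates were run and medians reported. Lung cancer cell lines in 1536-well plates were dosed by pin tool one day after seeding, with one drug or with a fixed anchor-drug dose plus five library-drug doses (not always all listed) in √10 steps, and nuclei were counted after 5 days.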

[2] = compound: O=c1ncccn1[C@@H]1O[C@H](CO)[C@@H](O)[C@H]1O [Zebularine] + Nc1ncn([C@H]2C[C@H](O)[C@@H](CO)O2)c(=O)n1 [Decitabine] (partner 2 µM)
Outline: as §1

[3] = compound: O=c1ncccn1[C@@H]1O[C@H](CO)[C@@H](O)[C@H]1O [Zebularine] + C[C@]1(O)C[C@@H](c2nc(-c3ccc4ccc(-c5ccccc5)nc4c3)c3c(N)nccn32)C1 [Linsitinib] (partner 1 µM)
Outline: as §1

[4] = compound: CC(C)CCN1c2nc(Nc3cc(F)c(O)c(F)c3)ncc2N(C)C(=O)C1C [BI-D1870] + CCNC(=O)c1noc(-c2cc(C(C)C)c(O)cc2O)c1-c1ccc(CN2CCOCC2)cc1 [Luminespib] (partner 0.01 µM)
Outline: as §1

Cell Line	relative viability ([1]; first compound 1 µM)	relative viability ([1]; first compound 3.162 µM)	relative viability ([1]; first compound 10 µM)	relative viability ([1]; first compound 31.62 µM)	relative viability ([1]; first compound 100 µM)	relative viability ([2]; first compound 1 µM)	relative viability ([2]; first compound 3.162 µM)	relative viability ([2]; first compound 10 µM)	relative viability ([2]; first compound 31.62 µM)	relative viability ([2]; first compound 100 µM)	relative viability ([3]; first compound 1 µM)	relative viability ([3]; first compound 3.162 µM)	relative viability ([3]; first compound 10 µM)	relative viability ([3]; first compound 31.62 µM)	relative viability ([3]; first compound 100 µM)	relative viability ([4]; first compound 0.04 µM)	relative viability ([4]; first compound 0.1265 µM)	relative viability ([4]; first compound 0.4 µM)	relative viability ([4]; first compound 1.265 µM)	relative viability ([4]; first compound 4 µM)
201T	0.793	0.767	0.647	0.741	0.719	0.872	0.883	0.76	0.894	0.844	1.13	1.02	1.05	1.09	1.04	1.1	1.01	1.06	1.07	1.12
A549						0.219	0.251		0.267	0.185	0.741	0.635	0.304	0.716	0.279					
A-427	0.763	0.746	0.698	0.448	0.267	0.693	0.534	0.524	0.455	0.302	1.12	1.08	0.855	0.513	0.256	1.06	0.764	0.77	1.11	0.879
ABC-1						1.13	0.68	0.888	0.577	0.495	0.678	0.713	0.572	0.544	0.481	0.581	0.776		0.512	0.371
BEN	0.996	0.994	0.781	0.491	0.49	0.821	0.686	0.545	0.495	0.371	0.911	0.777	0.432	0.384	0.308	0.409	0.358	0.441	0.356	0.35
CAL-12T	0.381	0.338	0.309	0.328	0.319						0.819	0.794	0.716	0.896	0.464	0.332	0.211	0.313	0.419	0.491
COR-L23	0.642	0.602	0.463	0.575	0.241	0.407	0.368	0.408	0.363	0.202	0.977	1.05	0.448	0.493	0.211	0.812	0.524	0.587	0.875	0.504
COR-L 105	0.517	0.394	0.439	0.459	0.396	0.642	0.696	0.523	0.648	0.647	0.986	0.956	0.928	1.22	0.939	0.824	0.828	0.631	0.854	0.666
Calu-6											1.03	0.946	0.734	0.864	0.209					
ChaGo-K-1	0.913	0.874	0.438	0.246	0.204	0.534	0.566	0.432	0.232	0.199						0.643	0.406	0.601	0.631	0.551
EBC-1											1.1	0.975	0.979	1.21	0.854					
EKVX	0.51	0.328		0.294	0.321	0.576	0.378		0.304	0.339	1.16	1.01		1.15	0.979	0.836	0.819	0.879	0.993	0.792
EMC-BAC-2	0.97	0.9	0.766	0.901	0.941	1.03	1	0.772	1.03	1.01	0.899	0.886	0.637	0.879	0.839	1.2	1.08	1.02	1.38	1.21
EPLC-272H	0.348		0.258	0.223	0.352	0.404		0.398	0.364	0.371	1.62			1.05	0.746	0.559	0.13	0.207	0.245	0.272
H3255	0.635	0.65		0.665	0.599	0.687	0.615		0.65	0.665	0.979	1.05		0.956	1	0.929	0.887	0.884	1.09	0.961
HARA	1.03	0.458	0.48	0.688	0.651	0.595	0.603	0.433	0.554	0.459	1.01	0.923		0.968	0.623	0.939	0.626	0.671	0.486	0.666
HCC-15	0.375	0.377	0.395	0.392	0.298	0.683	0.575	0.36	0.684	0.487	0.983	0.883	0.615	0.773	0.251	0.314	0.205	0.332	0.34	0.344
HCC-44	1.04	1.11	0.968	1.1	0.668	0.981	0.929	0.946	1.03	0.585	0.77	0.655	0.466	0.577	0.218	1.46	1	0.986	1.26	0.695
HCC-78	0.893	0.742		0.794	0.436	0.732	0.643		0.663	0.449	0.53	0.562	0.379	0.43	0.229					
HCC-366	0.425	0.402	0.274	0.313	0.0973	0.412	0.336	0.274	0.389	0.108	0.764	0.75	0.428	0.355	0.0776					
HCC-827	0.535	0.574	0.492	0.546	0.404	0.42	0.353	0.259	0.259	0.346	0.974	1.01	0.941	0.757	0.361	0.629	0.672	0.681	0.736	0.714

Cell Line	relative viability ([1]; first compound 1 µM)	relative viability ([1]; first compound 3.162 µM)	relative viability ([1]; first compound 10 µM)	relative viability ([1]; first compound 31.62 µM)	relative viability ([1]; first compound 100 µM)	relative viability ([2]; first compound 1 µM)	relative viability ([2]; first compound 3.162 µM)	relative viability ([2]; first compound 10 µM)	relative viability ([2]; first compound 31.62 µM)	relative viability ([2]; first compound 100 µM)	relative viability ([3]; first compound 1 µM)	relative viability ([3]; first compound 3.162 µM)	relative viability ([3]; first compound 10 µM)	relative viability ([3]; first compound 31.62 µM)	relative viability ([3]; first compound 100 µM)	relative viability ([4]; first compound 0.04 µM)	relative viability ([4]; first compound 0.1265 µM)	relative viability ([4]; first compound 0.4 µM)	relative viability ([4]; first compound 1.265 µM)	relative viability ([4]; first compound 4 µM)
HOP-62	0.456	0.435	0.282	0.244	0.191	0.205	0.205	0.209	0.164	0.178	1.05	0.848	0.557	0.188	0.118	0.989	0.929	0.88	0.95	0.866
IA-LM											0.723	0.794		0.878	0.503					
LC-2-ad	0.957	0.979	0.657	0.777	0.356	0.83	0.796	0.554	0.72	0.329	0.924	0.844	0.591	0.496	0.157	1.2	0.953	0.943	0.911	0.769
LCLC-97TM1	0.223	0.209	0.128	0.188	0.174	0.211	0.202	0.183	0.176	0.117	0.192	0.168	0.144	0.128	0.11	0.892	0.775	0.769	0.918	0.846
LCLC-103H	0.727	0.672	0.604	0.675	0.612	0.801	0.727	0.713	0.719	0.666	1.17	1.24	0.87	1	0.945	0.989	0.753	0.888	1.07	0.934
LK-2	0.626	0.669	0.476	0.459	0.441	0.34	0.338	0.274	0.288	0.194	0.52	0.564	0.371	0.35	0.218	0.204	0.19	0.185	0.169	0.212
LOU-NH91	0.773	0.814	0.718	0.843	0.65	0.842	0.802	0.744	0.849	0.593	0.893	0.963	0.868	0.876	0.629	0.366	0.33	0.315	0.351	0.264
LU99A	0.604	0.503	0.502	0.329	0.195	0.906	0.813	0.61	0.392	0.215	0.66	0.529	0.437	0.344	0.169	0.263	0.223	0.276	0.258	0.229
LXF-289	0.796	0.731	0.651	0.488	0.296	0.362	0.331	0.382	0.345	0.24	1.08	0.977	0.96	0.78	0.289	0.809	0.607	0.674	0.74	0.533
NCI-H23	0.486	0.443		0.405	0.412	0.344	0.342		0.303	0.335	0.671	0.549		0.646	0.548	0.237	0.222	0.232	0.217	0.24
NCI-H522	0.815	0.704	0.667	0.758	0.723	0.621	0.577	0.641	0.61	0.639						0.929	1.05	0.989	1.24	1.29
NCI-H1299											1.09	0.993	0.984	1.07	0.535					
NCI-H1563											1.21	1.17	1.17	1.22	1.17	0.512	0.481	0.502	0.521	0.526
NCI-H1623																0.597	0.521	0.625	0.462	0.499
NCI-H1648	0.628	0.469	0.435	0.421	0.419	0.456	0.478	0.368	0.487	0.438										
NCI-H1650	0.674	0.597	0.399	0.9	0.488	0.347	0.305	0.335	0.378	0.269						0.197	0.212	0.193	0.212	0.2
NCI-H1703											0.633	0.512	0.644	0.941	0.525					
NCI-H2170	0.931	0.919	0.677	0.874	0.441	0.48	0.423	0.426	0.505	0.349						0.817	0.723	0.751	0.65	0.67
NCI-H2228	0.612	0.251		0.417	0.252						0.616	0.666	0.514	0.509	0.409	0.142	0.131	0.146	0.157	0.127
NCI-H2342	0.891	0.768	0.751	0.756	0.712	0.744	0.749	0.699	0.815	0.696						0.706	0.718	0.711	0.758	0.907
SW 900	0.759	0.789		0.899	1.15	0.512	0.4		0.43	0.432						0.193	0.192	0.18	0.175	0.158

Source: the supplement of paper PMC10307832
